# Laboratory results from PMC2873402, “Discovery of High-Affinity Protein Binding Ligands – Backwards” (PLoS ONE, 2010).
# How the values were obtained:
# AKT1 = AKT1 (Homo sapiens, UniProt P31749); experiment: AKT1 binding site mapping by crosslinking and MS; parameters: N-terminal vector leader of pEXP5-NT (6xHis + TEV site by own knowledge of the vector); made in house; host or cells: Expressway Mini Cell-Free Expression System (in vitro translation); details: for region of AKT1 crosslinked: 10 µM peptide, 2.5 µM AKT1, 100 µM BS3-d0/d4 (1:1), trypsin, MALDI-TOF-MS; for likely binding site on AKT1: from relative intensity of fragments and proximity of lysines; for AKT1 lysine(s) likely cross-linked: surface-exposed lysines mapped on PDB 3CQU
# Text: As an orthogonal assessment of whether the peptides bind different sites on AKT1, each peptide was crosslinked to AKT1 in vitro using a commercially available set of deuterated / non-deuterated crosslinkers (BS^3-(d0/d4)). The crosslinkers chemically conjugate primary amines that are in close proximity to one another (11.4 Å) and the crosslinked complex is then subjected to enzymatic digestion and analysis by mass spectrometry. Crosslinked peptides are identified by the presence of a pair of ions that are separated by 4 mass units indicating crosslinking with both non-deuterated and deuterated crosslinkers. Peptide 1 has two possible crosslinking sites (N-terminus and K at position 3) and peptide 2 has one possible crosslinking site at the N-terminus. A 10 µM solution of each peptide was added to 2.5 µM AKT1 and incubated for 1 hour prior to the addition of a 100 µM solution of a 1∶1 mixture of crosslinkers. After crosslinking, the mixture was digested with trypsin and analyzed by MALDI-TOF-MS. […] The location of each AKT1 fragment was mapped onto a crystal structure of residues 139–480 of AKT1 (PDB #3CQU) (Figure 4C).
# 10 µM of peptide 1 and peptide 2 were individually incubated with 2.5 µM of recombinant AKT1 (produced in house) in PBS buffer (200 uL total volume) for one hour, after which an equimolar ratio of BS^3-d0∶BS^3-d4 (Thermo Scientific, Rockford, IL) crosslinker was added for a total crosslinker concentration of 100 µM. The same concentration of crosslinker was added to a 200 µL control sample containing only 2.5 µM AKT1. Crosslinking was performed for one hour. After crosslinking, free peptide and crosslinker were removed from the mixture with a 30 kDa spin filter and at the same time the buffer was exchanged with 100 mM ammonium bicarbonate pH 8.0. Proteomics grade trypsin (Sigma-Aldrich, St. Louis, MO) was added to all samples at a ratio of 1∶30 (mol∶mol) Trypsin∶AKT1 and incubated overnight at 37°C. Digested samples were lyophilized and reconstituted in 5 µL acetonitrile∶H2O (1∶1) containing 0.1% trifluoroacetic acid and spotted on a MALDI target plate along with ∝-cyano-4-hydroxycinnamic acid MALDI matrix. Mass spectra were obtained on an Ultraflex-III MALDI TOF-TOF (Bruker, Billerica, MA) and analyzed in FlexAnalysis (Bruker, Billerica, MA).
# [1] = biological target: synbody variant in which the C-terminal Cys was replaced with a Lys-Biotin; experiment: pull-down; IP: biotin synbody on streptavidin magnetic beads; ^35S-labeled AKT1 in the IVT mixture diluted from 41.5 nM to 80 pM (AKT1 about 3% of total protein); liquid scintillation counting; 1:1 fit in GraphPad Prism
# Chain of AKT1 (P31749 whole entry, the tested form may be a part): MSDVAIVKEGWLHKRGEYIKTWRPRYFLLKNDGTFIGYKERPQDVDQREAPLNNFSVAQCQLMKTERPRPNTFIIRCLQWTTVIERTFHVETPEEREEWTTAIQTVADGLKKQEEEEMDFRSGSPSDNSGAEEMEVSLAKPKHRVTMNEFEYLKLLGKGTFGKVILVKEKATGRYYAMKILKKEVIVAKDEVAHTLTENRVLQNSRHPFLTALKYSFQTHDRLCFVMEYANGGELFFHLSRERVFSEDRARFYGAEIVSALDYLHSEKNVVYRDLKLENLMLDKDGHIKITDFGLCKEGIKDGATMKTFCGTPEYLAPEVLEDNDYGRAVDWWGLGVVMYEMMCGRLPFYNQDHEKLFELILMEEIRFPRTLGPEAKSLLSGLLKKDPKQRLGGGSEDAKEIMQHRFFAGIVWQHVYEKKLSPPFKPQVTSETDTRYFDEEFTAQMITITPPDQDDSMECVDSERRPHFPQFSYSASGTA
# Chain of ^35S-labeled AKT1 produced by in vitro translation (P31749 whole entry): as the sequence (P31749 whole entry, the tested form may be a part) above
Substance,region of AKT1 crosslinked (AKT1),likely binding site on AKT1 (AKT1),AKT1 lysine(s) likely cross-linked (AKT1),Kd [1]
"AHKVVPQRQIRHAYNRYGSG [peptide 1, 20-aa peptide arm of the synbody]",crosslinked to a region of AKT1 that spans the Protein Kinase (PK) and AGC Kinase domain,"in a region of low homology between AKT1, AKT2, and AKT3",^419Lys,
"FRGWAHIFFGPHVIYRGGSG [peptide 2, 20-aa peptide arm of the synbody]","crosslinked to multiple regions on AKT1 (Figure 4A, Figure 4B, Table S1), with the majority of crosslinking occurring in the PK domain",primary binding site for peptide 2 is likely on the PK domain and that a secondary binding site lies on the AGC domain,"^182Lys, ^276Lys, and ^481Lys",
^35S-labeled AKT1 produced by in vitro translation (from UniProt P31749 1-480) (natural protein),,,,4.9 nM
